Numbered stars: 1 amine (or outer) side, 2 acyl side, 3 side chain; on linkers, the order of the positions; unused ones are H or OH. Square brackets hold non-standard residues; d marks the D form. Suc = O=C(CCC(=O)[*:2])[*:1]; NMeV = CN[C@H](C(=O)O)C(C)C; βAla = NCCC(=O)O
Tested on: Tilapia fish
Assay: Experiment #3: tilapia fed AN6-coated feed, treatment schedules 1 to 8 (survival, weight, length, size distribution, FCR)
Format: in vivo
Details: for Average weight/fish (g) / Total weight/cage (g) / Average FCR/cage / Average density (body/cage) / Average weight gain/fish (g): D 236 to D 279, % change relative to control; for % big fish (Big fish 279 dph >1000 g) / % small fish (Small fish 279 dph >476 g) / Δ Treatment - Control (%) big fish (>1000 g) / Δ Treatment - Control (%) small fish (>476 g) / Big fish # (Big fish 279 dph >1000 g) / Small fish # (Small fish 279 dph): 279 dph
Description: The following fish feed was used in this experiment: MeM (powder, manufactured by Bern Aqua), Nanolis P1, P2 (pellet sizes of 1 mm, 1.2-1.5 mm, respectively, manufactured by Ocialis) and Tilaphi 2, 3 & 4 (pellet sizes of 2 mm, 3-4 mm & 5.5 mm manufactured by Ocialis). The feed content is in described in Table 4.
Feed was coated using the following general procedure: Different amounts of the peptide AN6 (SEQ ID NO: 6) were prepared by dissolving the peptide in Tris-HCl solution (50 mM, pH=8.8) in ratio of 15 mg peptide to 1.25 ml Tris-HCl solution. Then, each of the various solutions was mixed with 3 Kg of the basic feed pellets (depending on fish size) using an electric mixer. The peptide-feed mixtures where then dried either in oven at 40° C. for 24 hours or in drying drum (at room temperature) for few hours to form coated pellets.
Tilapia fish (n=4800) were raised from day 10 (0.05 g) post-hatch (dph) in indoor tanks and then transferred to outdoor cages in ponds (40-279 dph). Each cage/tank is an experimental unit. The fish were fed to apparent satiation 2-4 times a day with feed appropriate to their age and treatment as described in Table 5.
The trial included total 48 cages representing 8 treatments, with 6 repeats each. Each cage contained about 100 fish. […] Fed to fish throughout the entire growth-trial period (for 279 days); • Treatment 2 (5 ppm from 10 dph for 120 days): The control diet with the addition of 5 mg peptide/kg of diet (Feed F). Fish were fed the peptide enriched diet for 120 days (4 months), from 10 days of age (D0—the first day of the experiment) to 130 days of age (D120), and the control diet during the last 6 months (159 days) (Feed E); • Treatment 3 (10 ppm from 10 dph for 60 days): The control diet with the addition of 10 mg peptide/kg of diet (Feed G). […] Fish were fed the peptide enriched diet for 90 days (3 months) from 10 days of age (D0) to 100 days of age (D90) and the control diet for the last 7 months (189 days) (Feed E); • Treatment 5 (10 ppm from 10 dph for 120 days): The control diet with the addition of 10 mg peptide/kg of diet (Feed G). Fish were fed the peptide enriched diet for 120 days (4 months) from 10 days of age (D0) to 130 days of age (D120) and the control diet for the last 6 months (159 days) (Feed E); • Treatment 6 (10 ppm from 100 dph for 30 days): The control diet with the addition of 10 mg peptide/kg of diet (Feed G). Fish were fed the peptide enriched diet for 30 days (1 month) from 100 days of age (D90) to 130 days of age (D120) and the control diet for the first three months (90 days from D0 to D90) and the last 6 months (159 days) (Feed E); • Treatment 7 (30 ppm from 10 dph for 60 days): The control diet with the addition of 30 mg peptide/kg of diet (Feed H). Fish were fed the peptide enriched diet for 60 days (2 months) from 10 days of age (D0) to 70 days of age (D60), and the control diet during the last 8 months (219 days) (Feed E); • Treatment 8 (30 ppm from 10 dph for 90 days): The control diet with the addition of 30 mg peptide/kg of diet (Feed H). Fish were fed the peptide enriched diet for 90 days (3 months) from 10 days of age (D0) to 100 days of age (D90) and the control diet for the last 7 months (189 days) (Feed E).
During the experimental period, fish weight and length were measured once a month. Individual fish sex was determined at days 96 and 279 of the experiment. Average fish weight per cage were calculated for each measurement period (FIG. 8). […] Between two weight measurements, average weight gain (FIG. 9A) and daily growth rates (FIG. 9B) were calculated by subtracting the average weight at the beginning and end of the measuring period and dividing by the number of days between.
In order to determine the efficiency of feed conversion into fish substance in experiments (#1, #2, #3), FCR values which reflect the amount of feed needed to grow a kilogram fish, were calculated for each period and for the entire fish growth period. […]

[1] = Treatment 5 (10 ppm from 10 dph for 120 days)
[2] = Treatment 5 (10 ppm from 10 dph for 120 days), female fish, D 96
[3] = Treatment 5 (10 ppm from 10 dph for 120 days), female fish, D 279
[4] = Treatment 5 (10 ppm from 10 dph for 120 days), male fish, D 96
[5] = Treatment 5 (10 ppm from 10 dph for 120 days), male fish, D 279
[6] = Treatment 6 (10 ppm from 100 dph for 30 days)
[7] = Treatment 6 (10 ppm from 100 dph for 30 days), of 442 fish
[8] = Treatment 6 (10 ppm from 100 dph for 30 days), female fish, D 96
[9] = Treatment 6 (10 ppm from 100 dph for 30 days), female fish, D 279
[10] = Treatment 6 (10 ppm from 100 dph for 30 days), male fish, D 96
[11] = Treatment 6 (10 ppm from 100 dph for 30 days), male fish, D 279
[12] = Treatment 7 (30 ppm from 10 dph for 60 days)
[13] = Treatment 7 (30 ppm from 10 dph for 60 days), of 427 fish
[14] = Treatment 7 (30 ppm from 10 dph for 60 days), female fish, D 96
[15] = Treatment 7 (30 ppm from 10 dph for 60 days), female fish, D 279
[16] = Treatment 7 (30 ppm from 10 dph for 60 days), male fish, D 96
[17] = Treatment 7 (30 ppm from 10 dph for 60 days), male fish, D 279
[18] = Treatment 8 (30 ppm from 10 dph for 90 days)
[19] = Treatment 8 (30 ppm from 10 dph for 90 days), of 446 fish
[20] = Treatment 8 (30 ppm from 10 dph for 90 days), female fish, D 96
[21] = Treatment 8 (30 ppm from 10 dph for 90 days), female fish, D 279
[22] = Treatment 8 (30 ppm from 10 dph for 90 days), male fish, D 96
[23] = Treatment 8 (30 ppm from 10 dph for 90 days), male fish, D 279

Succ-Asp-Ser- D-Trp -N(Me)Val-βAla-Leu-Met-NH2 (Suc-DS[dW][NMeV][βAla]LM-NH2; SMILES CSCC[C@H](NC(=O)[C@H](CC(C)C)NC(=O)CCNC(=O)[C@H](C(C)C)N(C)C(=O)[C@@H](Cc1c[nH]c2ccccc12)NC(=O)[C@H](CO)NC(=O)[C@H](CC(=O)O)NC(=O)CCC(=O)O)C(N)=O) [AN6]
Average weight/fish (g) [1]: 3.29%
Total weight/cage (g) [1]: 1.28%
Length/fish (cm) Mean [2]: 15.95 cm
Weight/fish (g) Mean [2]: 82.96 g
Δ Mean % (Treatment vs. control) Length/fish [2]: 1.01%
Δ Mean % (Treatment vs. control) Weight/fish [2]: 0.90%
Length/fish (cm) Mean [3]: 30.33 cm
Weight/fish (g) Mean [3]: 611.23 g
Δ Mean % (Treatment vs. control) Length/fish [3]: 0.66%
Δ Mean % (Treatment vs. control) Weight/fish [3]: 1.55%
Length/fish (cm) Mean [4]: 17.08 cm
Weight/fish (g) Mean [4]: 100.46 g
Δ Mean % (Treatment vs. control) Length/fish [4]: −0.81%
Δ Mean % (Treatment vs. control) Weight/fish [4]: −4.78%
Length/fish (cm) Mean [5]: 34.21 cm
Weight/fish (g) Mean [5]: 859.1 g
Δ Mean % (Treatment vs. control) Length/fish [5]: −0.49%
Δ Mean % (Treatment vs. control) Weight/fish [5]: −0.72%
% big fish (Big fish 279 dph >1000 g) [6]: 12.9%
% small fish (Small fish 279 dph >476 g) [6]: 6.6%
Δ Treatment - Control (%) big fish (>1000 g) [6]: 2.7%
Δ Treatment - Control (%) small fish (>476 g) [6]: −2.6%
Big fish # (Big fish 279 dph >1000 g) [7]: 57
Small fish # (Small fish 279 dph) [7]: 29
Average FCR/cage [6]: 0.00%
Average density (body/cage) [6]: −1.55%
Average weight gain/fish (g) [6]: 2.11%
Average weight/fish (g) [6]: 0.97%
Total weight/cage (g) [6]: −0.53%
Length/fish (cm) Mean [8]: 16.04 cm
Weight/fish (g) Mean [8]: 87.28 g
Δ Mean % (Treatment vs. control) Length/fish [8]: 1.58%
Δ Mean % (Treatment vs. control) Weight/fish [8]: 6.15%
Length/fish (cm) Mean [9]: 30.45 cm
Weight/fish (g) Mean [9]: 617.44 g
Δ Mean % (Treatment vs. control) Length/fish [9]: 1.06%
Δ Mean % (Treatment vs. control) Weight/fish [9]: 2.58%
Length/fish (cm) Mean [10]: 17.07 cm
Weight/fish (g) Mean [10]: 105.78 g
Δ Mean % (Treatment vs. control) Length/fish [10]: −0.87%
Δ Mean % (Treatment vs. control) Weight/fish [10]: 0.27%
Length/fish (cm) Mean [11]: 34.19 cm
Weight/fish (g) Mean [11]: 863.26 g
Δ Mean % (Treatment vs. control) Length/fish [11]: −0.55%
Δ Mean % (Treatment vs. control) Weight/fish [11]: −0.24%
% big fish (Big fish 279 dph >1000 g) [12]: 10.8%
% small fish (Small fish 279 dph >476 g) [12]: 5.4%
Δ Treatment - Control (%) big fish (>1000 g) [12]: 0.5%
Δ Treatment - Control (%) small fish (>476 g) [12]: −3.7%
Big fish # (Big fish 279 dph >1000 g) [13]: 46
Small fish # (Small fish 279 dph) [13]: 23
Average FCR/cage [12]: 0.00%
Average density (body/cage) [12]: −4.89%
Average weight gain/fish (g) [12]: 1.43%
Average weight/fish (g) [12]: 1.37%
Total weight/cage (g) [12]: −4.56%
Length/fish (cm) Mean [14]: 15.73 cm
Weight/fish (g) Mean [14]: 82.52 g
Δ Mean % (Treatment vs. control) Length/fish [14]: −0.38%
Δ Mean % (Treatment vs. control) Weight/fish [14]: 0.36%
Length/fish (cm) Mean [15]: 30.53 cm
Weight/fish (g) Mean [15]: 628.2 g
Δ Mean % (Treatment vs. control) Length/fish [15]: 1.33%
Δ Mean % (Treatment vs. control) Weight/fish [15]: 4.37%
Length/fish (cm) Mean [16]: 17.78 cm
Weight/fish (g) Mean [16]: 109.68 g
Δ Mean % (Treatment vs. control) Length/fish [16]: 3.25%
Δ Mean % (Treatment vs. control) Weight/fish [16]: 3.96%
Length/fish (cm) Mean [17]: 34.04 cm
Weight/fish (g) Mean [17]: 840.39 g
Δ Mean % (Treatment vs. control) Length/fish [17]: −0.99%
Δ Mean % (Treatment vs. control) Weight/fish [17]: −2.88%
% big fish (Big fish 279 dph >1000 g) [18]: 20.4%
% small fish (Small fish 279 dph >476 g) [18]: 5.6%
Δ Treatment - Control (%) big fish (>1000 g) [18]: 10.2%
Δ Treatment - Control (%) small fish (>476 g) [18]: −3.5%
Big fish # (Big fish 279 dph >1000 g) [19]: 91
Small fish # (Small fish 279 dph) [19]: 25
Average FCR/cage [18]: −2.14%
Average density (body/cage) [18]: −0.67%
Average weight gain/fish (g) [18]: 13.57%
Average weight/fish (g) [18]: 7.11%
Total weight/cage (g) [18]: 6.23%
Length/fish (cm) Mean [20]: 16.17 cm
Weight/fish (g) Mean [20]: 89.02 g
Δ Mean % (Treatment vs. control) Length/fish [20]: 2.41%
Δ Mean % (Treatment vs. control) Weight/fish [20]: 8.27%
Length/fish (cm) Mean [21]: 30.65 cm
Weight/fish (g) Mean [21]: 649.16 g
Δ Mean % (Treatment vs. control) Length/fish [21]: 1.73%
Δ Mean % (Treatment vs. control) Weight/fish [21]: 7.85%
Length/fish (cm) Mean [22]: 17.21 cm
Weight/fish (g) Mean [22]: 106.64 g
Δ Mean % (Treatment vs. control) Length/fish [22]: −0.06%
Δ Mean % (Treatment vs. control) Weight/fish [22]: 1.08%
Length/fish (cm) Mean [23]: 34.56 cm
Weight/fish (g) Mean [23]: 912.05 g
Δ Mean % (Treatment vs. control) Length/fish [23]: 0.52%
Δ Mean % (Treatment vs. control) Weight/fish [23]: 5.40%
average weight of males and females compared to their respective controls (differential analysis of male vs female performances): improved average weight
